In ChEMBL document CHEMBL3779885, “Inhibition of human DNA topoisomerase IIα by two novel ellipticine derivatives” (Bioorg Med Chem Lett, 2016):
The source made the active and inactive calls. No cut-off for these calls is given here.

Columns and labels:
[1] = test system: Calf thymus DNA; test: Inhibition of calf thymus DNA topoisomerase 2 assessed as DNA cleavage after 30 mins by agarose gel electrophoresis; format: nucleic-acid assay, Bos taurus
[2] = molecular target: T1, DNA topoisomerase 2-alpha (Homo sapiens, UniProt P11388); test: Activity at recombinant human DNA topoisomerase 2alpha expressed in topoisomerase1 deficient Saccharomyces cerevisiae JEL1 assessed as topoisomerase 2alpha-mediated supercoiled pBR322 DNA cleavage up to 200 uM after 15 mins by agarose gel electrophoresis
[3] = molecular target: T1, DNA topoisomerase 2-alpha; test: Inhibition of recombinant human DNA topoisomerase 2alpha expressed in topoisomerase1 deficient Saccharomyces cerevisiae JEL1 assessed as inhibition of DNA scission activity after 30 mins by agarose gel electrophoresis
[4] = molecular target: T1, DNA topoisomerase 2-alpha; test: Inhibition of recombinant human DNA topoisomerase 2alpha binding to supercoiled pBR322 DNA expressed in topoisomerase1 deficient Saccharomyces cerevisiae JEL1 at 25 uM after 6 mins by electrophoretic mobility shift assay
[5] = molecular target: T1, DNA topoisomerase 2-alpha; test: Inhibition of recombinant human DNA topoisomerase 2alpha expressed in topoisomerase1 deficient Saccharomyces cerevisiae JEL1 using kinetoplast DNA as substrate assessed as decantenated kDNA minicircles at 200 to 1000 uM after 15 mins by agarose gel electrophoresis
[6] = molecular target: T1, DNA topoisomerase 2-alpha; test: Inhibition of recombinant human DNA topoisomerase 2alpha expressed in topoisomerase1 deficient Saccharomyces cerevisiae JEL1 assessed as inhibition of DNA scission activity at 25 uM after 30 mins by agarose gel electrophoresis
[7] = test system: Escherichia coli; test: Induction of DNA intercalation in relaxed pBR322 DNA assessed as conversion of relaxed DNA to negatively supercoiled DNA by measuring topoisomerase 1-mediated DNA relaxation measured up to 25 uM after 15 mins by agarose gel electrophoresis
[8] = molecular target: T1, DNA topoisomerase 2-alpha; test: Induction of recombinant human DNA topoisomerase 2alpha binding to supercoiled pBR322 DNA expressed in topoisomerase1 deficient Saccharomyces cerevisiae JEL1 at 25 uM after 6 mins by electrophoretic mobility shift assay

T1 sequence (P11388 whole entry): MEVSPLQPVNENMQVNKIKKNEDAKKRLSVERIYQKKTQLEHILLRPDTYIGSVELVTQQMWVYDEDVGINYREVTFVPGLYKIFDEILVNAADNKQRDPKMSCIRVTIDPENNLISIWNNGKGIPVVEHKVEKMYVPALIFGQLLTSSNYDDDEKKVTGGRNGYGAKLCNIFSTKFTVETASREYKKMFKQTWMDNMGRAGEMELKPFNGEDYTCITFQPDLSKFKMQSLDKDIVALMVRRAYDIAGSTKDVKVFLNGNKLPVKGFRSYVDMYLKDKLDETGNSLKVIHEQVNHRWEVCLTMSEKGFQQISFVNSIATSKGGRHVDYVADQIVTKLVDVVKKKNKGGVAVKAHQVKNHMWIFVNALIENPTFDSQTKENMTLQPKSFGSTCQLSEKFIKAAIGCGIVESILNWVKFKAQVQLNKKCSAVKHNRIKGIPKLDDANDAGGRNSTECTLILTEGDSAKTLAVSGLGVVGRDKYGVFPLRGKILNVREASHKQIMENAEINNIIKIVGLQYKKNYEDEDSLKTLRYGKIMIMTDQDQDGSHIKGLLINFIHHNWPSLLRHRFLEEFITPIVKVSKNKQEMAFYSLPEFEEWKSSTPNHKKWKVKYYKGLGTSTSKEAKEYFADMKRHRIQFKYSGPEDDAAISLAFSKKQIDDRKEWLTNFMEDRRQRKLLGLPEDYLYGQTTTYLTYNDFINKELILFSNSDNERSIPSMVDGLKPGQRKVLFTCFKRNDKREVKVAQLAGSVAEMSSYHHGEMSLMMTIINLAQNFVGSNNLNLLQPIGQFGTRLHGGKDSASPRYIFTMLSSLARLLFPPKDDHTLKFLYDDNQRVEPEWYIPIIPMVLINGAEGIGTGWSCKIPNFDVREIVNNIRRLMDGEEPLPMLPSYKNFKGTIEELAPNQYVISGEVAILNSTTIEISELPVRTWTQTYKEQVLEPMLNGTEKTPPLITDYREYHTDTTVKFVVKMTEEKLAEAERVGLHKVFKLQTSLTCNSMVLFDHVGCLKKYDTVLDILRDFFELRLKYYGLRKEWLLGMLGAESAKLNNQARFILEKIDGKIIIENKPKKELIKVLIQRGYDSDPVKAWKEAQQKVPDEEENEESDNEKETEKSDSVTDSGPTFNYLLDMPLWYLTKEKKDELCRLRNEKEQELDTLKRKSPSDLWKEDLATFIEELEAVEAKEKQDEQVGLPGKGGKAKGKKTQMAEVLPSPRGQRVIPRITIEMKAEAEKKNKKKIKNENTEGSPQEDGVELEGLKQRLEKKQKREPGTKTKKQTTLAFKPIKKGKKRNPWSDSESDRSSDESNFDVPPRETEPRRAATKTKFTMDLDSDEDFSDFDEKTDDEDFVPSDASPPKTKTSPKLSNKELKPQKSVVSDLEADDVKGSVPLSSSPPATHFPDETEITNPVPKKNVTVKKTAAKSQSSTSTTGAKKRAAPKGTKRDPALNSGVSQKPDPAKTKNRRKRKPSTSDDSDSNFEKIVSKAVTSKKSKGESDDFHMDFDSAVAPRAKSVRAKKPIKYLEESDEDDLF

| Activity [8] | SMILES | IC50 [1] | Activity [2] | IC50 [3] | inhibition [4] | inhibition [5] | inhibition [6] | Activity [7] |
| --- | --- | --- | --- | --- | --- | --- | --- | --- |
|  | Cc1c2ccncc2c(C)c2c1[nH]c1ccccc12 [ELLIPTECINE] | > 200 µM |  |  |  |  |  |  |
|  | Cc1c2cnccc2cc2c1c1ccccc1n2C |  | inactive | 40 µM | inactive | Active | 40% | Active |
| 50% | Cc1c2c[n+](C)ccc2cc2c1c1ccccc1n2C |  | inactive | 5 µM | inactive | Active | 80% | Active |
